Results published in US6858640B2, “Tricyclic indole compounds having affinity for serotonin receptor” (Shionogi & Co., Ltd., priority 2000, dated 2005).
Where a name gives a salt, the structure may show the parent alone. Read-outs that look alike come from different tables or passages of the source.

What was measured:
5HT1A = target: T1, 5HT1A (Rattus norvegicus, UniProt P19327); assay: radioligand binding to serotonin receptor, cell membrane sample, Ki by Cheng-Prusoff
T1 construct: prepared from brain of rats or HEK293 cells, which expressed the receptor; from tissue; host or cells: rat brain membranes
T1 sequence (P19327 1-422): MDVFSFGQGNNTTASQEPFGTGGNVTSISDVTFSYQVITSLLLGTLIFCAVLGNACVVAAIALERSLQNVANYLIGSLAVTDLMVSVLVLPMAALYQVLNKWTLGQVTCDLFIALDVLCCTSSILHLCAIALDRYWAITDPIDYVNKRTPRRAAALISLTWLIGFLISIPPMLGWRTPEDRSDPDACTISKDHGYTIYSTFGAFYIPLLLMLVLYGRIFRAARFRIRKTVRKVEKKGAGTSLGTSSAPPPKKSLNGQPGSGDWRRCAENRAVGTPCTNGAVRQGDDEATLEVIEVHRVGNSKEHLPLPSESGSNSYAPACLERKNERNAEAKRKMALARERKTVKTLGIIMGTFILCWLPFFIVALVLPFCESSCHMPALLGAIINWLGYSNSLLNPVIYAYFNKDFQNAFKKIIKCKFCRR
Method: (§1) A mixture of radioactive ligands and some cardinal numbers of test compounds was incubated with a sample of cell membrane, which was prepared from brain of rats or HEK293 cells, which expressed the receptor, under the following conditions. Then, the sample was filtered by suction on a Whatman GF/C. Radioactivity on the filter was encountered by the use of a liquid scintillation counter. 50% Inhibitory concentration values (IC50 values) of each selective binding were calculated for test compounds and the Ki value was obtained by applying an equation of Cheng-Prusoff [Biochem. Pharmacol. 22 (1973) 3099-3108] Ki=IC50/(1+[L]/Kd).

5HT6 = target: T2, 5HT6 (Homo sapiens, UniProt P50406); assay: as above
T2 construct: expressed in transfected cells; host or cells: HEK293
T2 sequence (P50406 whole entry, species assumed): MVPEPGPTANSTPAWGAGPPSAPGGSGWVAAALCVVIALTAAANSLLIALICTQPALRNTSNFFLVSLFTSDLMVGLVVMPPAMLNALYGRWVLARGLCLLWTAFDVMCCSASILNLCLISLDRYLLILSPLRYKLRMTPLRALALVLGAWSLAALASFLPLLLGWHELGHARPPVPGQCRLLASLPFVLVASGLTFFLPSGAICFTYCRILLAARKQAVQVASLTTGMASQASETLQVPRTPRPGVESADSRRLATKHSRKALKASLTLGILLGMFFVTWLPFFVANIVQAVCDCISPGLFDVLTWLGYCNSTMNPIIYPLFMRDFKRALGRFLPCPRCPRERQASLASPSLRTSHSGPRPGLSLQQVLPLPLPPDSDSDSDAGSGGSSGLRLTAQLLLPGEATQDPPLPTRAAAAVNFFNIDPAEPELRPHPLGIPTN
Method: as §1

[1] = rat hippocampus membranes, 1 nM [3H] 8-OH-DPAT, 25° C. 30 min, read-out: Ki value (nM) ±SE 5-HT1A
[2] = rat 5-HT6 (HEK293), 8 nM [3H] 5HT 25° C. 120 min or 4 nM [3H] LSD 37° C. 60 min, read-out: Ki value (nM) ±SE 5-HT6

## N[C@@H]1COc2cccc3[nH]cc(c23)C1
other
  melting point: 202 to 203 °C

## c1cc2c3c(c[nH]c3c1)CC1(CO2)OCCO1
other
  melting point: 200 to 202 °C

## OC1COc2cccc3[nH]cc(c23)C1 (stereo not shown)
other
  melting point: 169 to 170 °C

## CNC1COc2cccc3[nH]cc(c23)C1 (stereo not shown) (as salt: oxalate) [Compound 19-2]
other
  melting point: 112 to 116 °C

## CN(C)C1COc2cccc3c2c(cn3S(=O)(=O)c2ccc(Cl)cc2)C1 (stereo not shown) (as salt: oxalate) [Compound 20-6]
other
  melting point: 114 to 118 °C (dec.)

## CN(C)C1COc2cccc3c2c(cn3S(=O)(=O)c2cccs2)C1 (stereo not shown) (as salt: oxalate) [Compound 20-9]
other
  melting point: 142 to 144 °C (dec.)

## CN(C)C1COc2cccc3c2c(cn3S(=O)(=O)c2ccc(C(F)(F)F)cc2)C1 (stereo not shown) (as salt: oxalate) [Compound 20-10]
other
  melting point: 119 to 122 °C (dec.)

## CN(C)C1COc2cccc3c2c(cn3S(=O)(=O)c2ccc(Br)cc2)C1 (stereo not shown) (as salt: oxalate) [Compound 20-11]
other
  melting point: 147 to 150 °C (dec.)

## CN(C)C1COc2cccc3c2c(cn3S(=O)(=O)c2cccc(Br)c2)C1 (stereo not shown) (as salt: oxalate) [Compound 20-12]
other
  melting point: 168 to 171 °C (dec.)

## CN(C)C1COc2cccc3c2c(cn3S(=O)(=O)c2ccccc2Br)C1 (stereo not shown) (as salt: oxalate) [Compound 20-13]
other
  melting point: 173 to 176 °C (dec.)

## COc1ccc(S(=O)(=O)n2cc3c4c(cccc42)OCC(N(C)C)C3)cc1 (stereo not shown) (as salt: oxalate) [Compound 20-14]
other
  melting point: 140 to 142 °C (dec.)

## COc1ccc(S(=O)(=O)n2cc3c4c(cccc42)OCC(N(C)C)C3)cc1OC (stereo not shown) (as salt: oxalate) [Compound 20-15]
other
  melting point: 123 to 126 °C (dec.)

## CN(C)C1COc2cccc3c2c(cn3S(=O)(=O)/C=C/c2ccccc2)C1 (stereo not shown) (as salt: oxalate) [Compound 20-16]
other
  melting point: 169 to 171 °C (dec.)

## CN(C)C1COc2cccc3c2c(cn3S(=O)(=O)c2cc(Cl)ccc2Cl)C1 (stereo not shown) (as salt: oxalate) [Compound 20-17]
other
  melting point: 161 to 163 °C (dec.)

## CN(C)C1COc2cccc3c2c(cn3S(=O)(=O)c2ccc(F)cc2)C1 (stereo not shown) (as salt: oxalate) [Compound 20-19]
other
  melting point: 143 to 144 °C (dec.)

## CN(C)C1COc2cccc3c2c(cn3S(=O)(=O)c2cc(F)c(Br)cc2F)C1 (stereo not shown) (as salt: oxalate) [Compound 20-20]
other
  melting point: 128 to 131 °C (dec.)

## CN(C)C1COc2cccc3c2c(cn3S(=O)(=O)c2ccc(Cl)s2)C1 (stereo not shown) (as salt: oxalate) [Compound 20-21]
other
  melting point: 154 to 156 °C (dec.)

## CN(C)C1COc2cccc3c2c(cn3S(=O)(=O)c2ccc(F)cc2F)C1 (stereo not shown) (as salt: oxalate) [Compound 20-22]
other
  melting point: 163 to 164 °C (dec.)

## COc1ccc(OC)c(S(=O)(=O)n2cc3c4c(cccc42)OCC(N(C)C)C3)c1 (stereo not shown) (as salt: oxalate) [Compound 20-23]
other
  melting point: 147 to 150 °C (dec.)

## CN(C)C1COc2cccc3c2c(cn3S(=O)(=O)c2ccc(-c3ccon3)s2)C1 (stereo not shown) (as salt: oxalate) [Compound 20-25]
other
  melting point: 113 to 115 °C (dec.)

## CNC1COc2cccc3c2c(cn3S(=O)(=O)c2ccccc2)C1 (stereo not shown) (as salt: oxalate) [Compound 36-2]
other
  melting point: 208 to 213 °C (dec.)

## NC1COc2cccc3[nH]cc(c23)C1 (stereo not shown) [Compound 8-1, 2,7,8,9-Tetrahydro-6-oxa-2-azabenzo[c,d]azulen-8-ylamine]
other
  melting point: 172 to 173 °C
5HT1A; [1]
  Ki: 36 nM

## CN(C)C1CC(=O)c2cccc3[nH]cc(c23)C1 (stereo not shown) [Compound 19-1, Dimethyl-(2,7,8,9-tetrahydro-6-oxo-2-azabenzo[cd]azulen-8-yl)amine]
5HT1A; [1]
  Ki: 81 nM

## CNC1COc2cccc3[nH]cc(c23)C1 (stereo not shown) [Compound 19-2]
5HT1A
  Ki: 23 nM
5HT6
  Ki: 97 nM

## CCCN(CCC)C1COc2cccc3[nH]cc(c23)C1 (stereo not shown) [Compound 19-5]
other
  melting point: 60 to 61 °C
5HT1A
  Ki: 10 nM

## C=CCNC1COc2cccc3[nH]cc(c23)C1 (stereo not shown) [Compound 19-7]
other
  melting point: 112 to 113 °C
5HT1A
  Ki: 19 nM

## c1cc2c3c(c[nH]c3c1)CC(N1CCCC1)CO2 (stereo not shown) [Compound 19-10]
other
  melting point: 137 to 139 °C
5HT1A
  Ki: 2.5 nM

## c1cc2c3c(c[nH]c3c1)CC(NC1CC1)CO2 (stereo not shown) [Compound 19-19]
other
  melting point: 130 to 131 °C
5HT1A
  Ki: 3.8 nM

## CN(C)C1CC(=O)c2cccc3c2c(cn3S(=O)(=O)c2ccccc2)C1 (stereo not shown) [Compound 20-1, (2-Benzenesulfonyl-2,7,8,9-tetrahydro-6-oxo-2-azabenzo[cd]azulen-8-yl)dimethylamine oxalate]
5HT6
  Ki: 1.7 nM

## CN(C)C1COc2cccc3c2c(cn3S(=O)(=O)c2cccc3ccccc23)C1 (stereo not shown) [Compound 20-5]
other
  melting point: 148 to 149 °C
5HT6
  Ki: 0.49 nM

## CN(C)C1COc2cccc3c2c(cn3S(=O)(=O)c2ccc(Cl)cc2)C1 (stereo not shown) [Compound 20-6]
5HT6; [2]
  Ki: 2.7 nM

## CN(C)C1COc2cccc3c2c(cn3S(=O)(=O)c2cccs2)C1 (stereo not shown) [Compound 20-9]
5HT1A
  Ki: 86 nM
5HT6
  Ki: 78 nM

## CN(C)C1COc2cccc3c2c(cn3S(=O)(=O)c2ccc(C(F)(F)F)cc2)C1 (stereo not shown) [Compound 20-10]
5HT1A
  Ki: 95 nM
5HT6
  Ki: 45 nM

## CN(C)C1COc2cccc3c2c(cn3S(=O)(=O)c2ccc(Br)cc2)C1 (stereo not shown) [Compound 20-11]
5HT6
  Ki: 5.7 nM

## CN(C)C1COc2cccc3c2c(cn3S(=O)(=O)c2cccc(Br)c2)C1 (stereo not shown) [Compound 20-12]
5HT6
  Ki: 2.7 nM

## CN(C)C1COc2cccc3c2c(cn3S(=O)(=O)c2ccccc2Br)C1 (stereo not shown) [Compound 20-13]
5HT6
  Ki: 3.9 nM

## COc1ccc(S(=O)(=O)n2cc3c4c(cccc42)OCC(N(C)C)C3)cc1 (stereo not shown) [Compound 20-14]
5HT6
  Ki: 22 nM

## COc1ccc(S(=O)(=O)n2cc3c4c(cccc42)OCC(N(C)C)C3)cc1OC (stereo not shown) [Compound 20-15]
5HT6; [2]
  Ki: 29 nM

## CN(C)C1COc2cccc3c2c(cn3S(=O)(=O)/C=C/c2ccccc2)C1 (stereo not shown) [Compound 20-16]
5HT6
  Ki: 22 nM

## CN(C)C1COc2cccc3c2c(cn3S(=O)(=O)c2cc(Cl)ccc2Cl)C1 (stereo not shown) [Compound 20-17]
5HT6
  Ki: 29 nM

## CN(C)C1COc2c(Br)ccc3c2c(cn3S(=O)(=O)c2ccccc2)C1 (stereo not shown) [Compound 20-18]
other
  melting point: 89 to 90 °C
5HT6
  Ki: 22 nM

## CN(C)C1COc2cccc3c2c(cn3S(=O)(=O)c2ccc(F)cc2)C1 (stereo not shown) [Compound 20-19]
5HT6
  Ki: 12 nM

## CN(C)C1COc2cccc3c2c(cn3S(=O)(=O)c2cc(F)c(Br)cc2F)C1 (stereo not shown) [Compound 20-20]
5HT6; [2]
  Ki: 11 nM

## CN(C)C1COc2cccc3c2c(cn3S(=O)(=O)c2ccc(Cl)s2)C1 (stereo not shown) [Compound 20-21]
5HT6; [2]
  Ki: 2.7 nM

## CN(C)C1COc2cccc3c2c(cn3S(=O)(=O)c2ccc(F)cc2F)C1 (stereo not shown) [Compound 20-22]
5HT6; [2]
  Ki: 26 nM

## COc1ccc(OC)c(S(=O)(=O)n2cc3c4c(cccc42)OCC(N(C)C)C3)c1 (stereo not shown) [Compound 20-23]
5HT6; [2]
  Ki: 9.9 nM

## COc1cccc(S(=O)(=O)n2cc3c4c(cccc42)OCC(N(C)C)C3)c1 (stereo not shown) [Compound 20-24]
other
  melting point: 103 to 104 °C
5HT6
  Ki: 3.2 nM

## CN(C)C1COc2cccc3c2c(cn3S(=O)(=O)c2ccc(-c3ccon3)s2)C1 (stereo not shown) [Compound 20-25]
5HT6; [2]
  Ki: 36 nM

## CN(C)C1COc2cccc3[nH]c(Br)c(c23)C1 (stereo not shown) [Compound 21, (1-Bromo-2,7,8,9-tetrahydro-6-oxa-2-azabenzo[cd]azulen-8-yl)dimethylamine]
other
  melting point: 170 to 172 °C
5HT1A; [1]
  Ki: 14 nM

## O=S(=O)(c1ccccc1)n1cc2c3c(cccc31)OCC(N1CCCC1)C2 (stereo not shown) [Compound 36-1, 2-Benzenesulfonyl-8-pyrrolidin-1-yl-2,7,8,9-tetrahydro-6-oxa-2-azabenzo[cd]azulene]
5HT1A; [1]
  Ki: 29 nM
5HT6
  Ki: 65 nM

## CNC1COc2cccc3c2c(cn3S(=O)(=O)c2ccccc2)C1 (stereo not shown) [Compound 36-2]
5HT6
  Ki: 8.5 nM

## CCc1ccc2[nH]cc3c2c1OCC(N(C)C)C3 (stereo not shown) [Compound 41, (5-Ethyl-2,7,8,9-tetrahydro-6-oxa-2-azabenzo[cd]azulen-8-yl)dimethylamine]
5HT1A; [1]
  Ki: 57 nM

## CN(C)C1COc2c(C=O)ccc3[nH]cc(c23)C1 (stereo not shown) [Compound 46-1, 8-Dimethylamino-2,7,8,9-tetrahydro-6-oxa-2-azabenzo[cd]-azulene-5-carbaldehyde]
5HT6
  Ki: 28 nM

## CSc1ccc2[nH]cc3c2c1OCC(N(C)C)C3 (stereo not shown) [Compound 46-3]
other
  melting point: 112 to 113 °C
5HT1A
  Ki: 18 nM

## CN(C)C1COc2c(C=NO)ccc3[nH]cc(c23)C1 (stereo not shown) [Compound 47, 8-Dimethylamino-2,7,8,9-tetrahydro-6-oxa-2-azabenzo[cd]-azulene-5-carbaldehyde Oxime]
5HT6
  Ki: 78 nM

## CN(C)C1COc2c(C#N)ccc3[nH]cc(c23)C1 (stereo not shown) [Compound 48, 8-Dimethylamino-2,7,8,9-tetrahydro-6-oxa-2-azabenzo[cd]-azulene-5-carbonitrile]
5HT6
  Ki: 1 nM
